Measured values: patent US5935790A, “Method for detecting a predisposition to susceptibility to toxic effects of drugs and poisons” (Rutgers, The State University of New Jersey, priority 1997, dated 1999)
Read-outs that look alike come from different tables or passages of the source.

What was measured:
rat fibroblasts = conditions: lead nitrate in the growth medium; cited from earlier work
arylsulfatase A (ASA) = arylsulfatase A (ASA) (Homo sapiens, UniProt P15289); conditions: fibroblasts
Method: FIG. 2. The effect of lead acetate on intracellular ASA enzymic activity in cultured human fibroblasts. Fibroblasts were grown in vitro as monolayer cultures in the absence or presence of different concentrations of lead acetate as described in the text. The cells were dissolved in buffer containing detergent and the enzymic activity of ASA and other lysosomal enzymes and protein concentration were determined. The data are expressed relative to the control and the s.e.m. at each concentration of lead is indicated.
The potential effect of lead on cellular levels of ASA was examined in an in vitro system employing human fibroblasts. […] Fibroblast cultures were derived from punch biopsies and maintained in glutamine/penicillin/streptomycin/fetal bovine serum supplemented EMEM or in the same supplemented medium containing 0.5. 5.0. or 20 μM lead acetate. These cultures were split every three cell cycles for a total of 6-12 cell divisions. Fibroblasts in logarithmic growth were washed with PBS and dissolved in 1 mL of PBS containing 0.1% Triton X-100. This suspension was centriftiged for 5 min at 12,000 ×g and the supernatant was employed for determination of ASA and arylsulfatase B (ASB) activities using p-nitrocatechol sulfate as described by Baum et al. [Clin. Chim. Acta 4:453-455 (1959)] and β-galactosidase [Poretz et al., supra]. Each assay was performed in triplicate, and the complete experiment was repeated three times on different occasions for evaluating the effect of lead on cellular levels of ASA.

partially purified ASA = partially purified ASA (Homo sapiens, UniProt P15289)
Method: FIG. 3. […] A preparation of partially purified human fibroblast ASA containing other lysosomal hydrolases was incubated for 1 hr at 4° C. in the presence of lead acetate as described in the text. ASA and other hydrolase enzymic activities were determined. The data are expressed relative to the control and the s.e.m at each concentration of lead is indicated.
(§1) The direct effect of lead on ASA activity was also studied. […] Human fibroblast ASA was enriched in a preparation of isolated lysosomal enzymes as described by Gorman and Poretz [J. Cell. Physiol. 131:158-164 (1987)]. Lead acetate in buffer was added to protein preparations containing approximately 2 units of ASA activity in a total volume of 2.0 ml and incubated at 4° C. A control lacking lead was also prepared in an identical fashion. Aliquots were removed at 30 min, 1 hr, 24 hr, and 48 hr and analyzed for ASA, β-galactosidase and β-hexosaminidaseactivities. Enzymic and protein analyses were performed in triplicate, and the complete experiment was repeated three times.

β-galactosidase = conditions: similar conditions as for ASA
Method: as §1

β-hexosaminidase = conditions: every concentration of metal studied
Method: as §1

ASA = conditions: daily i.p. 100 mg/kg body weight, cited from earlier work
isolated lysosomes = conditions: cited from earlier work

arylsulfatase A (ASA), sequence (P15289 19-507): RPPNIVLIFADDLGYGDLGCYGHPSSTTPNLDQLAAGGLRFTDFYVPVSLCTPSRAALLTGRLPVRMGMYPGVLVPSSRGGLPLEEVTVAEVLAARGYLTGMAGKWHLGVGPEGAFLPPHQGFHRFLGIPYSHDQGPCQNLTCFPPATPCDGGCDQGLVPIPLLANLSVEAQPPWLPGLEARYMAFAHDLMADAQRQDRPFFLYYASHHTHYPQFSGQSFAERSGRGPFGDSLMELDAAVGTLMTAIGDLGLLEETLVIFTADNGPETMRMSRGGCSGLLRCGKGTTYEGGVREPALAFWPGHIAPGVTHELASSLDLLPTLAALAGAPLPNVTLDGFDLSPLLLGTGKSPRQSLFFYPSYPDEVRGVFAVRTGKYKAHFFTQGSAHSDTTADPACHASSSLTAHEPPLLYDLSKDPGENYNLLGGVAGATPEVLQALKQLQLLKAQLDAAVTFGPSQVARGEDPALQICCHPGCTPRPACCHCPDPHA
partially purified ASA, sequence (P15289 19-507): as above

Structure (SMILES) | lysosomal membrane stability (rat fibroblasts) | amount of ASA relative to control cells grown without lead (arylsulfatase A (ASA)) | reduction of cellular ASA activity (arylsulfatase A (ASA)) | reduction of cellular ASA specific activity (arylsulfatase A (ASA); 0.5 µM) | decrease of ASA lysosomal enzyme activity vs cells in normal medium (arylsulfatase A (ASA); 20 µM) | loss of ASA activity (partially purified ASA; 200 μM lead acetate, 4° C., p=0.045) | time of maximum effect on ASA activity (partially purified ASA; 4° C., unchanged up to 48 hr) | effect on partially purified ASA (partially purified ASA; 100-200 μM lead acetate) | effect on β-galactosidase activity (β-galactosidase) | effect on β-hexosaminidase activity (β-hexosaminidase) | reduction in ASA activity vs control animals (ASA; rat kidney) | reduction in ASA activity vs control animals (ASA; rat liver) | decrease in stability of the lysosome (isolated lysosomes) | facilitated calcium transport by isolated lysosomes (isolated lysosomes; lead as low as 300 μM, concentration dependent)
O=[N+]([O-])[O-].O=[N+]([O-])[O-].[Pb+2] [lead nitrate] | reduction in lysosomal membrane stability | – | – | – | – | – | – | – | – | – | – | – | – | –
CC(=O)[O-].CC(=O)[O-].[Pb+2] [lead acetate] | – | ≥ 65% | 32-36% | 14% | 32-36% | 67% | 1 h | precipitation of the enzyme and loss of enzymic activity | no reduction | closely paralleled that for ASA activity | 20% | 55% | greater than 200 fold | markedly increased
